Results as given in patent publication US20100216791A1, “PYRIDINYLQUINAZOLINAMINE DERIVATIVES AND THEIR USE AS B-RAF INHIBITORS” (ASTRAZENECA, priority 2006, published 2010).

Biological target: Mutant B-Raf (V600E) enzyme (MT B-Raf) (Homo sapiens, UniProt P15056, V600E)
Test: biochemical
Conditions: B-Raf Alpha screen comparable to the described assay; phosphorylation of biotinylated HIS-MEK-AVI; results may be an average of two or more results

Sequence of Mutant B-Raf (V600E) enzyme (MT B-Raf) (P15056 whole entry V600E): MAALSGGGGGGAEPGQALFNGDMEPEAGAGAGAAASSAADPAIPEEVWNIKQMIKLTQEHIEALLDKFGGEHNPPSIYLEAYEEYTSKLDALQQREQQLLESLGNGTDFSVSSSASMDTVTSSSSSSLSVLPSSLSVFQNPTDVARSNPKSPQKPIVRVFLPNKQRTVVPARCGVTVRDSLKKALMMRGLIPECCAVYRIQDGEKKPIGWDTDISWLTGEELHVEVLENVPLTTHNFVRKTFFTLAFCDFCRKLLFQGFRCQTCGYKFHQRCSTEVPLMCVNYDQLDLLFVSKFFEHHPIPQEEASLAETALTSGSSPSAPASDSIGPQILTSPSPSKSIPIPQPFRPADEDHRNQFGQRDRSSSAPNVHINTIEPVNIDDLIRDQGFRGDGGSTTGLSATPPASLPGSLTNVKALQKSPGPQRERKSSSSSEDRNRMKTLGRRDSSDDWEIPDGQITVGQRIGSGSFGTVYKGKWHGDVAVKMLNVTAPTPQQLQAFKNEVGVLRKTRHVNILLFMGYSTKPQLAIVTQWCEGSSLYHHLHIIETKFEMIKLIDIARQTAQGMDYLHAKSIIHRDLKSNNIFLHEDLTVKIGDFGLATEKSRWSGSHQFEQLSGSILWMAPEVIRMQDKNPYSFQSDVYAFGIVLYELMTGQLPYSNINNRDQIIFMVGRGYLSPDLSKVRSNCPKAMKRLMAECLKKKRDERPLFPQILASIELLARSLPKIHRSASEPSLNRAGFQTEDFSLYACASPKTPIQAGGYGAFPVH

Row | Compound | IC50 [nM]
1 | CC(O)CCNC(C)c1ccc(Nc2ncc3cc(-c4ccncc4)ccc3n2)cc1 (centres unmarked) [Example 56, 4-[(1-{4-[(6-Pyridin-4-ylquinazolin-2-yl)amino]phenyl}ethyl)amino]butan-2-ol] | 26
2 | CC(NCCO)c1ccc(Nc2ncc3cc(-c4ccncc4)ccc3n2)cc1 (centres unmarked) [Example 57, 2-[(1-{4-[(6-Pyridin-4-ylquinazolin-2-yl)amino]phenyl}ethyl)amino]ethanol] | 29
3 | CNCCCNC(=O)c1ccc(Nc2ncc3cc(-c4ccncc4)ccc3n2)cc1 [Example 59, N-[3-(Methylamino)propyl]-4-[(6-pyridin-4-ylquinazolin-2-yl)amino]benzamide] | 69
4 | O=C(NCC(O)CO)c1ccc(Nc2ncc3cc(-c4ccncc4)ccc3n2)cc1 (centres unmarked) [Example 61, N-(2,3-Dihydroxypropyl)-4-[(6-pyridin-4-ylquinazolin-2-yl)amino]benzamide] | 100
5 | NCCNC(=O)c1ccc(Nc2ncc3cc(-c4ccncc4)ccc3n2)cc1 [Example 63, N-(2-Aminoethyl)-4-[(6-pyridin-4-ylquinazolin-2-yl)amino]benzamide] | 98
6 | O=C(NCC1CCNCC1)c1ccc(Nc2ncc3cc(-c4ccncc4)ccc3n2)cc1 [Example 64, N-(Piperidin-4-ylmethyl)-4-[(6-pyridin-4-ylquinazolin-2-yl)amino]benzamide] | 22
7 | CNCCNC(=O)c1cccc(Nc2ncc3cc(-c4ccncc4)ccc3n2)n1 [Example 65, N-[2-(Methylamino)ethyl]-6-[(6-pyridin-4-ylquinazolin-2-yl)amino]pyridine-2-carboxamide] | 1000
8 | O=C(NCC1CCCCN1)c1ccc(Nc2ncc3cc(-c4ccncc4)ccc3n2)cc1 (centres unmarked) [Example 68, N-Piperidin-2-ylmethyl-4-[(6-pyridin-4-ylquinazolin-2-yl)amino]benzamide] | 110
9 | c1cc(-c2ccc3nc(Nc4ccc(CNCCN5CCOCC5)cc4)ncc3c2)ccn1 [Example 70, N-(4-{[(2-Morpholin-4-ylethyl)amino]methyl}phenyl)-6-pyridin-4-ylquinazolin-2-amine] | 74

Next, values leading:

Row | IC50 [nM] | Compound
10 | 22 | COCCCNC(C)c1ccc(Nc2ncc3cc(-c4ccncc4)ccc3n2)cc1 (centres unmarked) [Example 55, N-(4-{1-[(3-Methoxypropyl)amino]ethyl}phenyl)-6-pyridin-4-ylquinazolin-2-amine]
11 | 36 | CC(NCCCO)c1ccc(Nc2ncc3cc(-c4ccncc4)ccc3n2)cc1 (centres unmarked) [Example 58, 3-[(1-{4-[(6-Pyridin-4-ylquinazolin-2-yl)amino]phenyl}ethyl)amino]propan-1-ol]
12 | 150 | O=C(NCC1CCCN1)c1ccc(Nc2ncc3cc(-c4ccncc4)ccc3n2)cc1 (centres unmarked) [Example 60, 4-[(6-Pyridin-4-ylquinazolin-2-yl)amino]-N-pyrrolidin-2-ylmethylbenzamide]
13 | 93 | NCCCNC(=O)c1ccc(Nc2ncc3cc(-c4ccncc4)ccc3n2)cc1 [Example 62, N-(3-Aminopropyl)-4-[(6-pyridin-4-ylquinazolin-2-yl)amino]benzamide]
14 | 700 | CNCCNC(=O)c1ccnc(Nc2ncc3cc(-c4ccncc4)ccc3n2)c1 [Example 66, N-[2-(Methylamino)ethyl]-2-[(6-pyridin-4-ylquinazolin-2-yl)amino]isonicotinamide]
15 | 110 | O=C(NC1CCNCC1)c1ccc(Nc2ncc3cc(-c4ccncc4)ccc3n2)cc1 [Example 67, N-Piperidin-4-yl-4-[(6-pyridin-4-ylquinazolin-2-yl)amino]benzamide]
16 | 260 | CN1CCCC1CCNCc1ccc(Nc2ncc3cc(-c4ccncc4)ccc3n2)cc1 (centres unmarked) [Example 72, N-[4-({[2-(1-Methylpyrrolidin-2-yl)ethyl]amino}methyl)phenyl]-6-pyridin-4-ylquinazolin-2-amine]
17 | 160 | CC(CN(C)C)NCc1ccc(Nc2ncc3cc(-c4ccncc4)ccc3n2)cc1 (centres unmarked) [Example 74, N^1,N^1-Dimethyl-N^2-{4-[(6-pyridin-4-ylquinazolin-2-yl)amino]benzyl}propane-1,2-diamine]
